How the values were obtained:
[1] = tested on: porcine common carotid arteries; experiment: Vasoconstriction immediately distal to the dilatation site, from carotid angiograms; format: in vivo, pig; conditions: mean±SEM; p<0.001 vs placebo
Procedure: An 8 mm×3 cm polyethylene angioplasty catheter (Blue Max, Medi-tech, Watertown, Mass.) was advanced under fluoroscopic guidance to the left and then to the right common carotid arteries for arterial dilatation. Angioplasty was performed 30 minutes after starting treatment, between the first and third cervical vertebrae, using a standardized procedure (5 inflations of 30 seconds duration at 7 atmospheres, with 60 seconds between inflations). Carotid angiography was performed by injecting 6 ml of ionic contrast material (Renografin 76, Squibb, Princeton, N.J.) just prior to carotid dilatation, using a catheter (8 F) with a metal ring of known dimension (Cordis Corporation, Miami, Fla.). Spot films were also taken during balloon dilatation. […]
The severity of localized vasoconstriction was determined immediately distal to the dilatation site from angiograms of the common carotid arteries obtained before and after the dilatation procedure. Computer-assisted planimetry was used to measure the mean maximal narrowing in lumen diameter before and after the procedure, expressed as a percentage of the respective arterial dimension before dilatation (J. Y. T. Lam et al., “Is Vasospasm Related to Platelet Deposition? Relationship in a Porcine Preparation of Arterial Injury in Vivo,” Circulation 75: 243-248 (1987)).

[2] = tested on: deeply injured porcine carotid artery; experiment: Platelet and fibrin(ogen) deposition and mural thrombus after deep arterial injury by balloon angioplasty; format: in vivo, pig
Procedure: (§1) Twenty normal pigs of Babcock 4-way cross stock (a mixture of Landrace, Yorkshire, Hampshire, and Durock breeds) approximately 4 months old with a mean weight of 40±1 kg (approximately 1 m^2 body surface area) (P. L. Altman & D. S. Dittmer, “Metabolism” in Biological Handbooks (Federation of American Societies for Experimental Biology, Bethesda, Md., 1968), pp. 346-348), were obtained from local farmers. […] Loading dose and maintenance infusion were calculated based on preliminary pharmacokinetic experiments in pigs.
The model of deep arterial injury in the porcine carotid artery has been described in detail previously (P. M. Steele et al., “Balloon Angioplasty: Natural History of the Pathophysiologic Response to Injury in a Pig Model,” Cir. Res. 57: 105-112 (1985); M. Heras et al., “Hirudin, Heparin, and Placebo During Deep Arterial Injury in the Pig. The in Vivo Role of Thrombin in Platelet-Mediated Thrombosis,” Circulation 82: 1476-1484 (1990); J. Y. T. Lam et al., “Is Vasospasm Related to Platelet Deposition? Relationship in a Porcine Preparation of Arterial Injury in Vivo,” Circulation 75: 243-248 (1987)). Autologous platelets were labeled with […] of ^111Indium-tropolone and reinjected together with […] of ^125Iodine-labeled porcine fibrinogen on the day prior to the procedure M. Heras et al., “Hirudin, Heparin, and Placebo During Deep Arterial Injury in the Pig. The in Vivo Role of Thrombin in Platelet-Mediated Thrombosis,” Circulation 82: 1476-1484 (1990); J. Y. T. Lam et al., “Is Vasospasm Related to Platelet Deposition? Relationship in a Porcine Preparation of Arterial Injury in Vivo,” Circulation 75: 243-248 (1987); J. Mruk et al., “Does Anti-Thrombotic Therapy Influence Residual Thrombus After Thrombolysis of Platelet-Rich Thrombus?,” Circulation 93: 792-799 (1996)). On the day of surgery, the pigs were sedated with 1 g intramuscular ketamine (Ketaset, Bristol Laboratories, Syracuse, N.Y.), intubated and mechanically ventilated with room air (Harvard respirator, Harvard Apparatus, South Natick, Mass.). Anesthesia was maintained with a continuous infusion of etomidate (Abbott Laboratories, North Chicago, Ill.) 40 mg/l, fentanyl (Elkins-Sinn, Inc., Cherry Hill, N.J.) 10 mg/l, and ketamine 1,000 mg/l, at about 5 ml/minute. The ECG and intra-arterial pressure were continuously monitored throughout the procedure.
The left femoral vein and artery and the right femoral vein were dissected. A 9 F sheath was placed in the left femoral artery, and 14 gauge angiocaths were inserted in the left and right femoral veins. […] All the lines for blood sampling were continuously flushed with 0.9% saline. […]

[3] = Laboratory tests: aPTT and ear bleeding time; format: in vivo, pig
Procedure: The left femoral vein and artery and the right femoral vein were dissected. A 9 F sheath was placed in the left femoral artery, and 14 gauge angiocaths were inserted in the left and right femoral veins. […] All the lines for blood sampling were continuously flushed with 0.9% saline.
(§2) All blood samples were collected with the 2-syringe technique (0.13 M trisodium citrate as anticoagulant; anticoagulant:blood=1:10). […] Platelet count, hematocrit, aPTT, and fibrinogen were determined using standard laboratory methods (Mayo Clinic, Clinical Laboratories). […] Assays were performed as a single batch. The method of determination of FAA in plasma was that of L. Malspeis (personal communication). Briefly, plasma (0.25-0.50 ml) was diluted to 1 ml with 0.5 ml of 0.5 M sodium acetate (pH 3.0) and normal saline. After addition of diethyl ether (4 ml) tubes were shaken on a mechanical shaker for 15 minutes. Following low speed centrifugation, the ether phase was evaporated to dryness under a stream of nitrogen and the residue dissolved in mobile solvent prior to HPLC analysis. Samples were analyzed by reversed-phase HPLC on an IBM C18 (10 micron) column with a mobile solvent of methanol/water mixture. Detection was by UV absorbance at 254 nm. Standard curves were prepared by adding known amounts of FAA to blood blank plasma and analyzing as described above.

[4] = FAA pharmacokinetics and plasma levels in pigs (HPLC); format: in vivo, pig
Procedure: as §1, §2
The intravenous bolus and continuous infusion doses to maintain a plasma concentration of 500 μg/ml calculated from these values, were 5.5 gm/m^2 and 140 mg/min/m^2, respectively.

[5] = tested on: solid tumors in the mouse; conditions: mice; cited from earlier work
[6] = tested on: human platelet-rich plasma; conditions: cited from earlier work

SMILES: O=C(O)Cc1cccc2c(=O)cc(-c3ccccc3)oc12 [FAA, flavone-8-acetic acid]
- Vasoconstriction immediately distal to the area of dilatation [1]: 15±3%
- Fibrin(ogen) deposition ([2]; deeply injured segments, mean±SEM, p=0.08 vs placebo): 40±8 ×10^12 molecules/cm^2
- Incidence of very small mural thrombi, treated pigs ([2]; per animal, p=0.005, large thrombi in all placebo pigs): 40%
- Incidence of very small thrombi, deeply injured segments ([2]; per deeply injured segment, placebo 85% large thrombi): 30%
- Platelet deposition in deeply injured segments ([2]; pigs, FAA bolus 5.5 g/m^2 then infusion 0.14 g/m^2/minute, mean±SEM, p=0.001 vs placebo): 13±3 ×10^6/cm^2
- Bleeding time after FAA in 4 of the animals ([3]; 4 of 5 animals, 210 seconds = 2 standard deviations above the mean laboratory value): more than 210 seconds
- Bleeding time after FAA ([3]; 5 animals, 30 minutes after starting infusion, before FAA 157±29 seconds): 522 ± 123 s
- concentration at 30 min ([4]; Babcock 4-way cross (Landrace, Yorkshire, Hampshire, Durock), pig, plasma, intravenous, 30 minutes after starting bolus 5.5 g/m^2 plus infusion 0.14 g/m^2/minute): 515 ± 23 µg/mL
- Plasma level of FAA at the end of the procedure ([4]; bolus 5.5 g/m^2 plus infusion 0.14 g/m^2/minute): 575 ± 36 µg/mL
- half-life ([4]; pig, plasma, two animals, intravenous bolus 1 gm/m^2, one compartment open model): 27.9 min
- Plasma clearance ([4]; two animals, intravenous bolus 1 gm/m^2, one compartment open model): 279 ml/min/m^2
- Implantation of solid tumors [5]: inhibits implantation of solid tumors in mice
- Ristocetin-induced platelet aggregation (vWF-GP Ibα-dependent) ([6]; FAA administered to patients with cancer): inhibited
- Aggregation induced by ADP, collagen, arachidonic acid and adrenalin ([6]; ex vivo and in vitro, human platelet-rich plasma): not inhibited
- Plasma ristocetin cofactor activity ([6]; human): unchanged
